Assays:
C57BL/6 mice = experiment: Survival in sepsis induced by cecal ligation and puncture (CLP); format: in vivo, mouse; details: 100 ng/mouse (5 μg/kg) i.v. at 6 and 16 hours after CLP; FIG. 7
Protocol: C57BL/6 mice aged 7-8 weeks were purchased from Jabio (Suwon, Gyeonggi-do) and sepsis was induced by cecal ligation and puncture (CLP).
Specifically, after anesthesia using 150 mg/kg of ketamine and 17.5 mg/kg of rompun, an abdominal incision of 1-2 cm was made to expose the cecum to induce sepsis. The cecum was ligated with 6-0 silk sutures at the distal end of the ileocecal valve, and a puncture was made with an 18-gauge needle. The perforated cecum was gently squeezed to push out 1-2 cm of feces, and the cecum was then retracted back into the abdominal cavity. The abdomen was then closed and pre-warmed normal saline (2.5 mL/100 g body weight) was injected into the mouse abdominal cavity immediately after the procedure. 6 and 16 hours after CLP treatment, the compound of formula (1a-1) was dissolved in phosphate buffered saline (PBS) and injected intravenously at 100 ng/mouse (5 μg/kg), and survival was examined for 10 days. […] In addition, as a drug-negative control, survival was examined in mice that received only PBS after CLP treatment.
For comparison, we also examined the survival of a control group treated with fingolimod (FTY720), a known S1P modulator, instead of the compound of formula (1a-1) under the same conditions.

[1] = system: tyrosine hydroxylase (TH); experiment: Tyrosine hydroxylase expression in differentiated SH-SY5Y dopaminergic neurons by western blot; format: cell-based, human; details: FIG. 6
Protocol: To analyze the effect on the expression of tyrosine hydroxylase (TH) and α-synuclein as neuron-specific proteins, western blot was performed.
SH-SY5Y cell line was treated with retinoic acid and 12-O-tetradecanoylphorbol-13-acetate (TPA) to induce differentiation into TH-secreting neurons for 6 days.
Differentiated dopaminergic neurons were lysed in PRO-PREP (Intronbio), a cell lysis solution containing protease inhibitor cocktail (Gendepot), and electrophoresed in 10% SDS polyacrylamide gels at 20 μg/well. Transfer was performed using PVDF (Merck millipore) as a membrane, and tyrosine hydroxylase antibody, «-synuclein antibody (Cell signaling), and β-actin antibody (Santa Cruz) were used for reaction for more than 2 hours. Protein expression was detected by staining with ECL substrate (Biorad) for development and graphed using the image J program.

[2] = system: tyrosine hydroxylase (TH); experiment: Differentiation of pluripotent stem cells into dopaminergic neurons: tyrosine hydroxylase expression; format: cell-based
Protocol: Pluripotent stem cells were seeded in Aggre Well plates (stemcell) at 5,000 cells/microwell and cultured for 5 days in E6 medium (GIBCO) to induce embryonic body (EB) formation. For neural rosette formation, EBs were seeded into 35 mm dishes in groups of 30 and cultured for 10 days in N2bF medium. The 35 mm dishes were used after being coated with 15 μg/ml of poly-L-ornithine (sigma) and 1 μg/ml of fibronectin (sigma). The N2Bf medium composition was DMEM/F12 (GIBCO), N2 supplement (stemcell) 1×, 10% NEAA (GIBCO), 55 µM beta-Mercaptoethanol (GIBCO), bFGF (peprotech) 20 ng/ml. For the formation of spherical neural masses (SNMs), rosette masses were sliced and cultured in petri dishes with N2bF medium. SNMs were no larger than 500 UM in size and were sliced and cultured for 3 to 4 passages. After subculture of SNM, the clumps were broken into small pieces using a tungsten mesh (Nilaco) for the neural progenitor cell (NPC) culture step, and then attached to a PLO/FN-coated dish and cultured in N2bF medium. To differentiate NPCs into dopaminergic neurons, the medium was replaced with an ITS-B27 medium after 2 days of NPC culture. The ITS-B27 medium composition was DMEM/F12 (GIBCO), D-(+)-glucose (sigma) 1.5 mg/ml, insulin (wako) 5 μg/ml, transferrin (wako) 50 μg/ml, selenite (sigma) 30 nM, GlutaMAX (GIBCO) 2.5%, and B27 (GIBCO) 1×. After 4 days of NPC culture, 200 ng/ml of Sonic Hedgehog and 100 ng/ml of FGF8 (peprotech) were added to the ITS-B27 medium. After 6 days of NPC culture, 200 ng/ml of Sonic Hedgehog, 20 ng/ml of GDNF, 20 ng/ml of BDNF (peprotech), 200 µM of ascorbic acid, and 500 μM of cAMP (sigma) were added to the ITS-B27 medium and cultured for approximately 5 weeks. The compound of formula (1a-1) was treated starting from the stage 2 days after NPC culture. […]
The effect of the compound of formula (1a-1) on differentiation into neurons was evaluated by comparing the expression of tyrosine hydroxylase (TH) and dopamine transporter (DAT) depending on the presence or absence of treatment with the compound of formula (1a-1).

TNF-α = TNF-α in serum after CLP treatment by ELISA; format: in vivo, mouse; details: serum at 18 hours, treated at 6 and 16 hours after CLP; FIG. 10
Protocol: After CLP treatment, the inflammatory cytokines TNF-α and IL-6 were analyzed by ELISA.
Specifically, after treating the compound of formula (1a-1) at 6 and 16 hours after CLP treatment, mouse blood was collected at 18 hours and allowed to stand at room temperature for 1 hour, then centrifuged at 3000 rpm for 10 minutes to obtain serum to analyze the amount of TNF-α and IL-6.

## CCCCCCCCCCCCCC[C@H]1OP(=O)(O)O[C@H]1[C@@H](N)CO.Cl [formula (1a-1), (4S,5R)-4-((S)-1-amino-2-hydroxyethyl)-2-hydroxy-5-tetradecyl-1,3,2-dioxaphosphoran-2-oxide hydrochloride]
C57BL/6 mice
  deaths after 10 days: no deaths
  survival for 10 days: more than 80%
[1]; differentiated dopaminergic neurons treated with rotenone (RT)
  expression of TH: the expression of TH decreased by rotenone was restored
[1]; rotenone-treated differentiated dopaminergic neurons
  effectiveness relative to resveratrol (control drug), TH expression: more effective than resveratrol
[2]; 5-week differentiation sample, FIG. 5B
  TH expression (western blot): TH expression is increased
[2]; FIG. 5A
  expression of TH (cell fluorescence immunostaining): the expression of TH increased
[2]; FIG. 5A, TH expression otherwise increases after more than 5 weeks of differentiation
  time at which TH expression was elevated: ≤ 3 weeks
TNF-α
  amount of TNF-α: significantly decreased
